Like-named read-outs stand apart in the source and are kept apart here. Values belong to the compound of their own block, whether it stands above or below them.
Legend:
HIV-1 IN [1] = target: T1, HIV-1 IN (Human immunodeficiency virus type 1 group M subtype B, UniProt P12497); assay: in vitro IN assay, 3′-processing; assay type: biochemical
[2] = test system: HIV-1 vector carrying WT IN; conditions: read-out: EC50 WT; HOS cells, vector harboring WT IN; cited from earlier work
[3] = test system: HIV-1 vector carrying Y143R IN mutant; conditions: cited from earlier work; for FC, fold change relative to WT, Y143R: EC50 of mutant/EC50 of WT; for EC50: read-out: EC50 Y143R, HOS cells, vector harboring Y143R IN
[4] = test system: HIV-1 vector carrying N155H IN mutant; conditions: cited from earlier work; for FC, fold change relative to WT, N155H: EC50 of mutant/EC50 of WT; for EC50: read-out: EC50 N155H, HOS cells, vector harboring N155H IN
[5] = test system: HIV-1 vector carrying G140S/Q148H IN mutant; conditions: cited from earlier work; for FC, fold change relative to WT, G140S/Q148H: EC50 of mutant/EC50 of WT; for EC50: read-out: EC50 G140S/Q148H, HOS cells, vector harboring G140S/Q148H IN
[6] = test system: human osteosarcoma (HOS) cells; conditions: 50% reduction in the level of ATP in HOS cells; cited from earlier work
[7] = test system: HIV-1 vector carrying Y143R IN mutant; assay: single-round HIV-1 infectivity assay, vector with Y143R IN; assay type: cell-based; conditions: for FC, fold change relative to WT, Y143R: EC50 of mutant/EC50 of WT; for EC50: Human immunodeficiency virus 1, HOS, read-out: EC50 Y143R
[8] = test system: HIV-1 vector carrying N155H IN mutant; assay: single-round HIV-1 infectivity assay, vector with N155H IN; assay type: cell-based; conditions: for FC, fold change relative to WT, N155H: EC50 of mutant/EC50 of WT; for EC50: Human immunodeficiency virus 1, HOS, read-out: EC50 N155H; for fold improvement relative to DTG, N155H: EC50 of compound/EC50 of DTG
[9] = test system: HIV-1 vector carrying G140S/Q148H IN mutant; assay: single-round HIV-1 infectivity assay, vector with G140S/Q148H IN; assay type: cell-based; conditions: for FC, fold change relative to WT, G140S/Q148H: EC50 of mutant/EC50 of WT; for EC50: Human immunodeficiency virus 1, HOS, read-out: EC50 G140S/Q148H
HIV-1 IN [10] = target: T1, HIV-1 IN; assay: in vitro IN assay, strand transfer; assay type: biochemical
in vitro = conditions: human
[11] = test system: HIV-1 vector carrying WT IN; assay: single-round HIV-1 infectivity assay, vector with WT IN; assay type: cell-based; conditions: EC50 of compound/EC50 of DTG
[12] = test system: HIV-1 vector carrying G118R IN mutant; assay: single-round HIV-1 infectivity assay, vector with G118R IN; assay type: cell-based; conditions: EC50 of compound/EC50 of DTG
[13] = test system: HIV-1 vector carrying T66I IN mutant; assay: single-round HIV-1 infectivity assay, vector with T66I IN; assay type: cell-based; conditions: EC50 of compound/EC50 of DTG
[14] = test system: HIV-1 vector carrying E92Q IN mutant; assay: single-round HIV-1 infectivity assay, vector with E92Q IN; assay type: cell-based; conditions: EC50 of compound/EC50 of DTG
[15] = test system: HIV-1 vector carrying R263K IN mutant; assay: single-round HIV-1 infectivity assay, vector with R263K IN; assay type: cell-based; conditions: EC50 of compound/EC50 of DTG
[16] = test system: HIV-1 vector carrying H51Y IN mutant; assay: single-round HIV-1 infectivity assay, vector with H51Y IN; assay type: cell-based; conditions: EC50 of compound/EC50 of DTG
[17] = test system: HIV-1 vector carrying H51Y/R263K IN mutant; assay: single-round HIV-1 infectivity assay, vector with H51Y/R263K IN; assay type: cell-based; conditions: EC50 of compound/EC50 of DTG
[18] = test system: HIV-1 vector carrying G118R IN mutant; conditions: cited from earlier work; for EC50: read-out: EC50 G118R, vector harboring G118R IN
[19] = test system: HIV-1 vector carrying T66I IN mutant; conditions: cited from earlier work; for EC50: read-out: EC50 T66I, vector harboring T66I IN
[20] = test system: HIV-1 vector carrying E92Q IN mutant; conditions: cited from earlier work; for EC50: read-out: EC50 E92Q, vector harboring E92Q IN
[21] = test system: HIV-1 vector carrying R263K IN mutant; conditions: cited from earlier work; for EC50: read-out: EC50 R263K, vector harboring R263K IN
[22] = test system: HIV-1 vector carrying H51Y/R263K IN mutant; conditions: cited from earlier work; for EC50: read-out: EC50 H51Y/R263K, vector harboring H51Y/R263K IN
[23] = test system: HIV-1 vector carrying H51Y IN mutant; conditions: cited from earlier work; for EC50: read-out: EC50 H51Y, vector harboring H51Y IN

IC50 (HIV-1 IN [1]): > 333000 nM
SMILES: COC(=O)CNc1c(C(=O)NCc2ccc(F)cc2F)c(=O)n(O)c2nc(N3CCCCC3)ccc12 [5h, Methyl 2-((3-((2,4-Difluorobenzyl)carbamoyl)-1-hydroxy-2-oxo-7-(piperidin-1-yl)-1,2-dihydro-1,8-naphthyridin-4-yl)amino)acetate]

IC50 (HIV-1 IN [1]): > 333000 nM
SMILES: COC(=O)CNc1c(C(=O)NCc2ccc(F)cc2F)c(=O)n(O)c2nc(N3CCOCC3)ccc12 [5i, Methyl 2-((3-((2,4-Difluorobenzyl)carbamoyl)-1-hydroxy-7-morpholino-2-oxo-1,2-dihydro-1,8-naphthyridin-4-yl)amino)acetate]

SMILES: O=C(NCc1ccc(F)cc1F)c1c(O)c2cccnc2n(O)c1=O [5′a]
EC50 [2]: 6.2 ± 2.9 nM | FC, fold change relative to WT, Y143R [3]: 2 × | EC50 [3]: 11 ± 2 nM | FC, fold change relative to WT, N155H [4]: 5 × | EC50 [4]: 31 ± 8 nM | FC, fold change relative to WT, G140S/Q148H [5]: 50 × | EC50 [5]: 308 ± 125 nM | CC50 [6]: 137000 ± 20000 nM

SMILES: Nc1c(C(=O)NCc2ccc(F)cc2F)c(=O)n(O)c2ncccc12 [5′d]
EC50 [2]: 1.1 ± 0.7 nM | CC50 [6]: > 250000 nM

SMILES: COC(=O)CNc1c(C(=O)NCc2ccc(F)cc2F)c(=O)n(O)c2ncccc12 [5′g]
FC, fold change relative to WT, Y143R [7]: 1 × | EC50 [7]: 4.6 ± 2.2 nM | FC, fold change relative to WT, N155H [8]: 5 × | EC50 [8]: 19 ± 7 nM | FC, fold change relative to WT, G140S/Q148H [9]: 9 × | EC50 [9]: 36 ± 16 nM

IC50 (HIV-1 IN [10]; ST IC50, as stated in text): ≤ 10 nM
SMILES: CC(=O)OCCCc1cnc2c(c1)c(N)c(C(=O)NCc1ccc(F)cc1F)c(=O)n2O [6b, 3-(5-Amino-6-((2,4-difluorobenzyl)carbamoyl)-8-hydroxy-7-oxo-7,8-dihydro-1,8-naphthyridin-3-yl)propyl Acetate]

SMILES: Nc1c(C(=O)NCc2ccc(F)cc2F)c(=O)n(O)c2ncc(CCCCCCOC(=O)c3ccccc3)cc12 [6c, 6-(5-Amino-6-((2,4-difluorobenzyl)carbamoyl)-8-hydroxy-7-oxo-7,8-dihydro-1,8-naphthyridin-3-yl)hexyl Benzoate]
IC50 (HIV-1 IN [10]; in vitro IC50 ST, gel-based protocol, Mg2+ cofactor): 3300 ± 600 nM | FC, fold change relative to WT, Y143R [7]: 0.7 × | EC50 [7]: 3.5 ± 1.2 nM | FC, fold change relative to WT, N155H [8]: 1 × | EC50 [8]: 5.4 ± 1.9 nM | FC, fold change relative to WT, G140S/Q148H [9]: 4 × | EC50 [9]: 21 ± 7.8 nM | CC50 (in vitro): 14400 ± 4800 nM

IC50 (HIV-1 IN [10]; ST IC50, as stated in text): ≤ 10 nM
SMILES: Nc1c(C(=O)NCc2ccc(F)cc2F)c(=O)n(O)c2ncc(CCC(=O)O)cc12 [6i, 3-(5-Amino-6-((2,4-difluorobenzyl)carbamoyl)-8-hydroxy-7-oxo-7,8-dihydro-1,8-naphthyridin-3-yl)propanoic Acid]

IC50 (HIV-1 IN [10]; ST IC50, as stated in text): < 10 nM
SMILES: Nc1c(C(=O)NCc2ccc(F)cc2F)c(=O)n(O)c2ncc(CCC(=O)NCCO)cc12 [6n, 4-Amino-N-(2,4-difluorobenzyl)-1-hydroxy-6-(3-((2-hydroxyethyl)amino)-3-oxopropyl)-2-oxo-1,2-dihydro-1,8-naphthyridine-3-carboxamide]

IC50 (HIV-1 IN [10]; ST IC50, as stated in text): < 10 nM
SMILES: Nc1c(C(=O)NCc2ccc(F)cc2F)c(=O)n(O)c2ncc(/C=C/C(=O)NCCO)cc12 [6o, (E)-4-Amino-N-(2,4-difluorobenzyl)-1-hydroxy-6-(3-((2-hydroxyethyl)amino)-3-oxoprop-1-en-1-yl)-2-oxo-1,2-dihydro-1,8-naphthyridine-3-carboxamide]

SMILES: COC(=O)CCc1cnc2c(c1)c(N)c(C(=O)NCc1ccc(F)cc1F)c(=O)n2O [6p, Methyl 3-(5-Amino-6-((2,4-difluorobenzyl)carbamoyl)-8-hydroxy-7-oxo-7,8-dihydro-1,8-naphthyridin-3-yl)propanoate]
IC50 (HIV-1 IN [10]; ST IC50, as stated in text): ≤ 10 nM | fold improvement relative to DTG, WT [11]: 0.67 ± 0.15 (0.42×) | fold improvement relative to DTG, Y143R ([7]; EC50 of compound/EC50 of DTG): 0.67 ± 0.23 (0.16×) | fold improvement relative to DTG, N155H [8]: 2.3 ± 0.2 (0.64×) | fold improvement relative to DTG, G140S/Q148H ([9]; EC50 of compound/EC50 of DTG): 5.3 ± 1.8 (0.91×) | fold improvement relative to DTG, G118R [12]: 4.8 ± 1.5 (0.37×) | fold improvement relative to DTG, T66I [13]: 0.53 ± 0.06 (0.59×) | fold improvement relative to DTG, E92Q [14]: 2.0 ± 1.1 (0.87×) | fold improvement relative to DTG, R263K [15]: 0.5 ± 0.0 (0.05×) | fold improvement relative to DTG, H51Y [16]: 0.63 ± 0.30 (0.20×) | fold improvement relative to DTG, H51Y/R263K [17]: 2.4 ± 0.8 (0.15×)

SMILES: Nc1c(C(=O)NCc2ccc(F)cc2F)c(=O)n(O)c2ncc(CCCCCO)cc12 [6′b]
fold improvement relative to DTG, WT [11]: 1.3 ± 0.2 (0.81×) | fold improvement relative to DTG, N155H [8]: 2.4 ± 0.8 (0.67×) | fold improvement relative to DTG, G118R [12]: 5.3 ± 1.6 (0.41×) | fold improvement relative to DTG, R263K [15]: 2.6 ± 0.1 (0.24×) | fold improvement relative to DTG, H51Y/R263K [17]: 2.6 ± 1.4 (0.16×) | CC50 [6]: > 250000 nM

SMILES: C[C@@H]1CCO[C@H]2Cn3cc(C(=O)NCc4ccc(F)cc4F)c(=O)c(O)c3C(=O)N12 [DTG (3), dolutegravir]
EC50 [2]: 1.6 ± 0.9 nM | EC50 [4]: 3.6 ± 1.3 nM | EC50 [18]: 13 ± 5 nM | EC50 [19]: 0.9 ± 0.8 nM | EC50 [20]: 2.3 ± 0.4 nM | EC50 [21]: 11 ± 3 nM | EC50 [22]: 16 ± 2 nM | CC50 [6]: > 250000 nM

SMILES: COc1cc2c(cc1Cc1cccc(Cl)c1F)c(=O)c(C(=O)O)cn2[C@H](CO)C(C)C [EVG (2), elvitegravir]
EC50 [2]: 6.4 ± 0.8 nM | FC, fold change relative to WT, Y143R [3]: 1 × | EC50 [3]: 7.9 ± 2.3 nM | FC, fold change relative to WT, N155H [4]: 14 × | EC50 [4]: 90 ± 18 nM | FC, fold change relative to WT, G140S/Q148H [5]: 891 × | EC50 [5]: 5700 ± 1100 nM | FC, fold change relative to WT, G118R ([18]; EC50 of mutant/EC50 of WT): 3 × | EC50 [18]: 21 ± 10 nM | FC, fold change relative to WT, T66I ([19]; EC50 of mutant/EC50 of WT): 10 × | EC50 [19]: 66 ± 1 nM | FC, fold change relative to WT, E92Q ([20]; EC50 of mutant/EC50 of WT): 24 × | EC50 [20]: 154 ± 34 nM | FC, fold change relative to WT, R263K ([21]; EC50 of mutant/EC50 of WT): 2 × | EC50 [21]: 10 ± 6 nM | FC, fold change relative to WT, H51Y ([23]; EC50 of mutant/EC50 of WT): 0.7 × | EC50 [23]: 4.5 ± 2.1 nM | FC, fold change relative to WT, H51Y/R263K ([22]; EC50 of mutant/EC50 of WT): 8 × | EC50 [22]: 53 ± 18 nM | CC50 [6]: > 250000 nM

SMILES: Cc1nnc(C(=O)NC(C)(C)c2nc(C(=O)NCc3ccc(F)cc3)c(O)c(=O)n2C)o1 [RAL (1), raltegravir]
EC50 [2]: 4 ± 2 nM | EC50 [18]: 36 ± 5 nM | EC50 [19]: 2.8 ± 0.4 nM | EC50 [20]: 30 ± 10 nM | EC50 [21]: 5.7 ± 2.3 nM | EC50 [23]: 3.4 ± 0.2 nM | EC50 [22]: 6 ± 2.3 nM | CC50 [6]: > 250000 nM

— article PMC5601359 (Journal of Medicinal Chemistry, 2017)
